Results from US12220410B2, “Antitumor composition” (priority 2019, dated 2025).
Like-named read-outs stand apart in the source and are kept apart here.

Tests used:
[1] = system: human diffuse large B-cell lymphoma cell line OCI-Ly7; assay type: in vivo
[2] = system: human acute myelogenous leukemia (AML) cell line KG-1; assay type: in vivo
[3] = system: human breast cancer cell line MDA-MB-453; assay: In vivo antitumor effect test, MDA-MB-453 tumor, compound A and lapatinib (Example 37); parameters: species or system NOD-SCID mice
Experimental: The tumor volume was calculated from tumor diameters by the following formula: (Long diameter×[Short diameter]^2×0.5). Using the calculated tumor volume value, the relative tumor volume (ratio of the tumor volume on the day of measurement to the baseline tumor volume on Day 1) was calculated. […] Further, the tumor growth delay rate (% TGD) was calculated according to the following formula: % TGD={(T−C)/C}×100, Where: • T: […] relative tumor volume of the control group to reach 1600% 6) Statistical Analysis
Compound A was suspended in a 1% hypromellose solution to prepare 20 mg/mL test substance suspensions (a suspension for preparing a single administration solution and a suspension for preparing a 100 mg/kg combined administration solution). The 20 mg/mL test substance suspensions were diluted with a 1% hypromellose solution to prepare 10 mg/mL (100 mg/kg administration solution), 6 mg/mL (suspension for preparing a 30 mg/kg combined administration solution), and 3 mg/mL (30 mg/kg administration solution) test substance suspensions. Lapatinib was suspended in a 1% hypromellose solution to prepare a 20 mg/mL suspension for preparing a 100 mg/kg lapatinib combined administration solution. The 20 mg/mL suspension was diluted with a 1% hypromellose solution to prepare a 10 mg/mL suspension for 100 mg/kg single administration. The administration solution of the combination group was prepared by mixing the 6 mg/mL compound A suspension and the 20 mg/mL lapatinib suspension at 1:1, or mixing the 20 mg/mL compound A suspension and the 20 mg/mL lapatinib suspension at 1:1.
MDA-MB-453 was obtained from ATCC. […] The collected cells were suspended in serum-free RPMI 1640 medium at 1.0×10^8 cells/mL.
5-week-old female NOD-SCID mice (NOD.CB17-Prkdcscid/J, produced by Charles River Japan Co., Ltd.) were used. The female NOD-SCID mice were bred in the same manner as in Example 36. The cell suspension was inoculated at 2×10^7 cells/body into the subcutaneous space of the right axillary region of the 6-week-old NOD-SCID mice, and the mice were grouped in the same manner as in Example 36 using the tumor volume as an index.
The administration was started on the next day of the grouping (Day 2), and compound A and lapatinib were orally administered once a day for 28 consecutive days. Each group (N=8) was treated as follows. • (1) Control (solvent control) group: 1% hypromellose solution • (2) Compound A (30 mg/kg) treated group: 30 mg/kg of compound A (oral administration once a day for 28 consecutive days) • (3) Compound A (100 mg/kg) treated group: 100 mg/kg of compound A (oral administration once a day for 28 consecutive days) • (4) Lapatinib (100 mg/kg) treated group: 100 mg/kg of lapatinib (oral administration once a day for 28 consecutive days) • (5) Combination group 1: 30 mg/kg of compound A (oral administration once a day for 28 consecutive days)+100 mg/kg of lapatinib (oral administration once a day for 28 consecutive days) • (6) Combination group 2: 100 mg/kg of compound A (oral administration once a day for 28 consecutive days)+100 mg/kg of lapatinib (oral administration once a day for 28 consecutive days)

[4] = system: human follicular lymphoma cell line DOHH-2; assay: In vitro cell growth inhibition test (CellTiter-Fluor), DOHH-2; assay type: cell-based; details: for IC50: Homo sapiens, DOHH-2, 120 h; for FIC (fractional inhibitory concentration): DOHH-2
[5] = system: human diffuse large B-cell lymphoma (DLBCL) cell line OCI-Ly7; assay: In vitro cell growth inhibition test, OCI-Ly7 (cell viability, combination index); assay type: cell-based; details: compound A 0 nM, OCI-Ly7
[6] = system: human diffuse large B-cell lymphoma cell line OCI-Ly7; assay type: in vivo; remark: listed apart in the source
[7] = system: human acute myelogenous leukemia (AML) cell line KG-1; assay type: in vivo; remark: listed apart in the source
[8] = system: human diffuse large B-cell lymphoma cell line OCI-Ly7; assay type: in vivo; remark: listed apart in the source
[9] = cyclophosphamide 50 mg/kg intraperitoneally on Days 2, 5, 9, 12, relative tumor volume 1600%
[10] = lapatinib 100 mg/kg orally once a day for 28 days, relative tumor volume 200%
[11] = bendamustine 15 mg/kg intraperitoneally on Days 2, 3, 4, 5, 6, relative tumor volume 1600%
[12] = rituximab 10 mg/kg intraperitoneally on Days 2, 9, 16, relative tumor volume 600%

O=P1(N(CCCl)CCCl)NCCCO1 (centres unmarked) [Cyclophosphamide, reference compound]
effectiveness of monotherapy (tumor growth delay) ([1]; 30 or 100 mg/kg of compound A, 50 mg/kg of cyclophosphamide): effective | Median Time (time for relative tumor volume to reach 1600%) ([1]; cyclophosphamide 50 mg/kg intraperitoneally on Days 2, 5, 9, 12): 23.4 days | Tumor growth delay [1, 9]: 10.7 days | Tumor growth delay rate [1, 9]: 83.9%

Nc1ncn([C@H]2C[C@H](O)[C@@H](CO)O2)c(=O)n1 [Decitabine, 5-aza-2′-deoxycytidine, reference compound]
antitumor effect on KG-1 tumor (monotherapy) ([2]; compound A 30 mg/kg, decitabine 1 mg/kg): antitumor effect | T/C (ratio of relative tumor volume of treated group to control group) ([2]; decitabine monotherapy 1 mg/kg intraperitoneally, twice a week, Day 23): 27.7%

CS(=O)(=O)CCNCc1ccc(-c2ccc3ncnc(Nc4ccc(OCc5cccc(F)c5)c(Cl)c4)c3c2)o1 [Lapatinib, reference compound]
effectiveness of monotherapy (tumor growth delay) ([3]; 30 or 100 mg/kg of compound A, 100 mg/kg of lapatinib): effective | Median Time (time for relative tumor volume to reach 200%) ([3]; lapatinib 100 mg/kg orally once a day for 28 days): 34.2 days | Tumor growth delay [3, 10]: 11.4 days | Tumor growth delay rate [3, 10]: 50.0%

Cn1c(CCCC(=O)O)nc2cc(N(CCCl)CCCl)ccc21 [Bendamustine]
IC50 ([4]; read-out: IC50 value of bendamustine in each concentration of compound A, compound A 0 nM (bendamustine alone), DOHH-2, 1000 cells/well, 120 hours): 9870 nM | IC50 ([4]; read-out: IC50 value of bendamustine in each concentration of compound A, compound A 39.1 nM, DOHH-2, 120 hours): 5590 nM | IC50 ([4]; read-out: IC50 value of bendamustine in each concentration of compound A, compound A 78.1 nM, DOHH-2, 120 hours): 2960 nM | IC50 ([4]; read-out: IC50 value of bendamustine in each concentration of compound A, compound A 156.3 nM, DOHH-2, 120 hours): 1500 nM | IC50 ([4]; read-out: IC50 value of bendamustine in each concentration of compound A, compound A 312.5 nM, DOHH-2, 120 hours): 40.5 nM | FIC (fractional inhibitory concentration) ([4]; bendamustine fixed at 0 nM, compound A at its IC50): 0 | FIC (fractional inhibitory concentration) ([4]; bendamustine fixed at 1250 nM, compound A at its IC50): 0.127 | FIC (fractional inhibitory concentration) ([4]; bendamustine fixed at 2500 nM, compound A at its IC50): 0.253 | FIC (fractional inhibitory concentration) ([4]; bendamustine fixed at 5000 nM, compound A at its IC50): 0.506 | FIC (fractional inhibitory concentration) ([4]; compound A fixed at 0 nM, bendamustine at its IC50): 1 | FIC (fractional inhibitory concentration) ([4]; compound A fixed at 39.1 nM, bendamustine at its IC50): 0.566 | FIC (fractional inhibitory concentration) ([4]; compound A fixed at 78.1 nM, bendamustine at its IC50): 0.300 | FIC (fractional inhibitory concentration) ([4]; compound A fixed at 156.3 nM, bendamustine at its IC50): 0.152 | FIC (fractional inhibitory concentration) ([4]; compound A fixed at 312.5 nM, bendamustine at its IC50): 0.004 | Cell viability (ratio relative to the drug-free control) ([5]; bendamustine 1.25 nM): 0.93 | Cell viability (ratio relative to the drug-free control) ([5]; bendamustine 2.5 nM): 0.87 | Cell viability (ratio relative to the drug-free control) ([5]; bendamustine 5 nM): 0.66 | Cell viability (ratio relative to the drug-free control) ([5]; bendamustine 10 nM): 0.29 | effectiveness of monotherapy (tumor growth delay) ([6]; 30 mg/kg of compound A, 15 mg/kg of bendamustine): effective | Median Time (time for relative tumor volume to reach 1600%) ([6]; bendamustine 15 mg/kg intraperitoneally on Days 2, 3, 4, 5, 6): 24.3 days | Tumor growth delay [6, 11]: 8.8 days | Tumor growth delay rate [6, 11]: 56.5%

Nc1ccn([C@@H]2O[C@H](CO)[C@@H](O)[C@@H]2O)c(=O)n1 [Cytarabine, reference compound]
antitumor effect on KG-1 tumor (monotherapy) ([7]; compound A 30 mg/kg, cytarabine 50 mg/kg): antitumor effect | T/C (ratio of relative tumor volume of treated group to control group) ([7]; cytarabine monotherapy 50 mg/kg intraperitoneally, 5-day administration and 2-day cessation, Day 16): 62.3%

Rituximab: anti-CD20 antibody; Rituxan (trademark) 100 mg/10 mL, purchased from Genentech [reference compound]
effectiveness of monotherapy (tumor growth delay) ([8]; 30 mg/kg of compound A, 10 mg/kg of rituximab): effective | Median Time (time for relative tumor volume to reach 600%) ([8]; rituximab 10 mg/kg intraperitoneally on Days 2, 9, 16): 28.4 days | Tumor growth delay [8, 12]: 12.1 days | Tumor growth delay rate [8, 12]: 74.2%
